Source: patent US20090048198A1, “COMPOSITIONS AND METHODS FOR NUCLEIC ACID DELIVERY SYSTEMS” (Northwestern University, priority 2007, published 2009)
Several values for one entry are separate records, joined by “and”; a condition that tells them apart may be missing. Equal values may be shown once.

Key:
[1] = Synchrotron small-angle X-ray diffraction (SAXD) on heating; assay type: physicochemical; conditions: SAXD heating scans 20-90° C.
Method: (§1) Chloroform solutions of cationic lipids were mixed in glass vials at the desired ratios, solvent was removed with a N2 stream and, subsequently, high vacuum. The lipid mixtures were hydrated in PBS (50 mM phosphate buffer, 100 mM NaCl, pH 7.2) overnight at room temperature and vortex-mixed for several minutes; then they were subjected to several cycles of freezing and thawing. Samples were subsequently equilibrated overnight at room temperature before measurement.
Measurements were performed at Argonne National Laboratory, Advanced Photon Source, DND-CAT (beamline 5-IDD) and BioCAT (beamline 18-ID), using 12 keV X-rays, as previously described [1 R. Koynova, R. C. MacDonald, Mixtures of Cationic Lipid O-Ethylphosphatidylcholine With Membrane Lipids and DNA: Phase Diagrams, Biophys. J. 85 (2003) 2449-2465]. The lipid concentration of the dispersions was 20 wt %. Samples were filled into glass capillaries (Charles Supper Co., Natick, Mass.) and flame-sealed. A Linkam thermal stage (Linkam Sci Instruments, Surrey, England) provided temperature control. Linear heating and cooling scans were performed at rates of 1-5° C./min. Exposure times were typically 0.5 sec. Data were collected using a MAR-CCD detector. Sample-to-detector distance was 1.8-2 m. […] Products of lipid degradation were not detected in these samples, and radiation damage of the lipids was not evident from their X-ray patterns.

[2] = DSC of hydrated cationic lipid dispersions and binary phase diagrams; assay type: physicochemical; conditions: for melting transition Tm (solid-liquid crystalline): hydrated dispersions, DSC heating 30° C./h
Method: as §1
DSC measurements were performed using a VP-DSC Microcalorimeter (MicroCal Inc., Northampton, Mass.) at 30° C./h. Thermograms were analyzed using OriginLab (Northampton, Mass.) software. The onset and the completion temperatures of the phase transitions needed for the construction of the phase diagram were determined by the intersections of the peak slopes with the baseline on the thermograms. The maximums of the heat capacity curves were taken as the phase transition temperatures of the pure components. For asymmetric or split line shapes of the composite aggregates, the transition temperature was defined as that temperature at which the area of the endotherm was divided into equal halves.

[3] = tested on: Human umbilical artery endothelial cells (HUAECs); assay: Transfection of HUAECs with lipoplexes, β-galactosidase reporter assay; assay type: cell-based; conditions: HUAEC cells in vitro; CMV-β-galactosidase plasmid; β-galactosidase activity 24 h after transfection
Method: Human umbilical artery endothelial cells (HUAECs) were obtained from Cambrex (Walkersville, Md.) were and maintained in EGM-2 MV containing 5% fetal bovine serum (FBS) (Cambrex) at 37° C. with 5% CO2. At confluence, the cells were passaged using 0.25 mg/ml Trypsin/EDTA (Cambrex) and were used at passages 5-10 for these experiments. It is noted that human endothelial cells, and particularly HUAECs, are known in the art to be difficult to transfect (see, Teifel, et al., Endothelium, New York, 5, 21-35 (1997); Krotz et al., J. Vasc. Res., 40:425-434 (2003); and Tanner et al., Cardiovascular Research, 35:522-528 (1997)) all of which are herein incorporated by reference. For example, it has been reported that the level of transfection for a reporter gene in human umbilical vein endothelial cells is less than 1% of that of HeLa cells (Edgell et al., BioTechniques, 25:264-272 (1998), herein incorporated by reference).
The cells were seeded in 96-well plates at 24 h before transfection at densities appropriate to give about 80% confluence at the time of transfection. CMV-β-galactosidase plasmid was purchased from Clontech Laboratories Inc. (Palo Alto, Calif.) and propagated and purified by Bayou Biolabs (Harahan, La.). […]

Row | SMILES | temperature of solid-liquid crystalline (lamellar) transition on heating [1] | melting transition Tm (solid-liquid crystalline) [2] [°C] | phase at physiological temperature (37° C.) according to phase diagram [2] | transfection activity [3]
1 | CCCCCCCCCCCCCC[N+](C)(C)CCCCCCCCCCCCCC.[Br-] [diC14DAB, Ditetradecyldimethylammonium-bromide] | 25 °C and ~26 °C | 26 | – | –
2 | CCCCCCCCCCCCCC(=O)OC[C@H](COP(=O)(OCC)OCC[N+](C)(C)C)OC(=O)CCCCCCCCCCCCC (some centres unmarked) [EDMPC] | – | 24 | liquid crystalline phase | better transfection agents than EDPPC
3 | CCCCCCCCCCCCCCCC(=O)OC[C@H](COP(=O)(OCC)OCC[N+](C)(C)C)OC(=O)CCCCCCCCCCCCCCC (some centres unmarked) [EDPPC] | – | 42 | solid phase | still transfects DNA into cells
4 | CCCCCCCCCCCCCCCCCC[N+](C)(C)CCCCCCCCCCCCCCCCCC.[Br-] [diC18DAB, dioctadecyldimethylammonium-bromide] | 47 °C | ~50 | solid phase | –
